Several values for one entry are separate records, joined by “and”; a condition that tells them apart may be missing. Identical values can stand only once.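 Each compound was tested at five concentrations against cells in 96-well plates for 48 hours. GI50 is the concentration that inhibits growth by half. TGI is the concentration that stops growth completely.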
Experiments:
Test in all cases: NCI anticancer screen, dose series, 48 h
HCT-116 colon = test system: HCT-116 colon
HL-60(TB) leukemia = test system: HL-60(TB) leukemia
M14 melanoma = test system: M14 melanoma
MDA-MB-231 breast = test system: MDA-MB-231 breast
MDA-MB-435 = test system: MDA-MB-435
OVCAR-4 ovarian = test system: OVCAR-4 ovarian
SK-MEL-5 melanoma = test system: SK-MEL-5 melanoma
U251 CNS = test system: U251 CNS
UACC-62 melanoma = test system: UACC-62 melanoma
UO-31 renal = test system: UO-31 renal

Compound	GI50 (HCT-116 colon) [µM]	TGI (HCT-116 colon)	GI50 (HL-60(TB) leukemia) [µM]	TGI (HL-60(TB) leukemia)	GI50 (M14 melanoma) [µM]	TGI (M14 melanoma)	TGI (MDA-MB-231 breast)	TGI (MDA-MB-435)	TGI (OVCAR-4 ovarian)	TGI (SK-MEL-5 melanoma)	TGI (U251 CNS)	TGI (UACC-62 melanoma)	TGI (UO-31 renal) [µM]	GI50 (MDA-MB-231 breast) [µM]	GI50 (MDA-MB-435) [µM]	GI50 (OVCAR-4 ovarian) [µM]	GI50 (SK-MEL-5 melanoma) [µM]	GI50 (U251 CNS) [µM]	GI50 (UACC-62 melanoma) [µM]	GI50 (UO-31 renal) [µM]
Nc1ccn(C2O[C@H](CO)[C@@H](O)[C@@H]2O)c(=O)n1 (some centres not stated)	24.2	> 100 µM	> 100	> 100 µM	22.3	> 100 µM	> 100 µM	> 100 µM	> 100 µM	> 100 µM	> 100 µM	> 100 µM	> 100	–	–	–	–	–	–	–
O=C1NNC=Nc2ccc(cc2)S(=O)(=O)c2ccc(cc2)N=CNNC1=O	–	> 100 µM	–	> 100 µM	–	> 100 µM	> 100 µM	> 100 µM	> 100 µM	> 100 µM	> 100 µM	> 100 µM	> 100	–	–	–	–	–	–	–
N#CSCC1CC(O)(c2ccccc2)C(c2ccccc2)C(c2ccc(Cl)cc2)O1 (configuration not stated)	0.569	1.99 µM	1.55	5.77 µM	1.53	3.15 µM	4.79 µM	2.88 µM	2.53 µM	2.98 µM	3.12 µM	2.81 µM	2.68	1.8	1.4	1.22	1.63	1.58	1.41	1.33
Cc1ccc(CS/C(=C\c2ccc([N+](=O)[O-])cc2)C(=O)c2ccc(F)cc2)cc1	–	–	2.9	17.3 µM	3.07	15.6 µM	6.08 µM	6.49 µM	13.3 µM	5.98 µM	3.1 µM	8.77 µM	13.3	2.42	2.41	3.04	2.4	1.67	2.46	2.72
CSc1ccc(C2=NN(C(C)=O)C(c3cc(C)cs3)C2)cc1 (configuration not stated)	20.4	66.1 µM	11.8	29.8 µM	–	–	> 100 µM	> 100 µM	> 100 µM	29.5 µM	> 100 µM	98.4 µM	> 100	27.5	23.4	18	15.1	32.8	11.2	19.9
Cc1cc(N(CCOS(C)(=O)=O)CCOS(C)(=O)=O)ccc1C=Nc1ccc(-c2nc(Cc3ccccc3)sc2C)cc1	–	35 µM	–	28.9 µM	–	20.7 µM	26.9 µM	26.6 µM	36.8 µM	26.7 µM	22.8 µM	16.7 µM	18.3	–	–	–	–	–	–	–
Cc1ccc(-c2c3c([nH]c(=O)c2C#N)-c2cc(F)ccc2OC3)cc1	–	–	96.6	> 100 µM	29.9	> 100 µM	> 100 µM	> 100 µM	> 100 µM	> 100 µM	> 100 µM	> 100 µM	> 100	34.8	35.8	> 100	41.8	46.2	61.2	41.3
CNC(=O)OCc1c(COC(=O)NC)c(-c2ccc(Cl)c(Cl)c2)n2c1SCC2	–	26 µM	–	25.4 µM	–	37.9 µM	34.4 µM	33.3 µM	25.5 µM	25.1 µM	22.2 µM	8.94 µM	25.5	–	–	3.59	–	–	–	–
CC1OC(n2cc(F)c(=O)[nH]c2=O)CCC1O (configuration not stated)	–	> 100 µM	–	> 100 µM	–	> 100 µM	> 100 µM	> 100 µM	> 100 µM	> 56.2 µM	> 100 µM	> 100 µM	> 100	–	–	–	–	–	–	–
CN1CCN(Cc2ccc(NC(=O)c3cncc(C#Cc4cnc(N)c5ccc(C#N)cc45)c3)cc2C(F)(F)F)CC1	0.0254	0.672 µM	0.0483	1.05 µM	0.0151	0.258 µM	0.228 µM	0.675 µM	–	0.696 µM	0.846 µM	0.422 µM	0.565	0.037	0.0286	–	0.176	0.0235	0.0279	0.0809
Cc1c(C(=O)N/N=C/c2ccc(Cl)cc2)nnn1-c1ccnc2c(C(F)(F)F)cccc12	2.31	5.42 µM	6.39	48 µM	4.45	18.9 µM	6.08 µM	21.3 µM	6.08 µM	> 100 µM	–	28.4 µM	27.8	2.17	4.46	2.9	28.4	–	10.6	13
O=C(O)CCCCC(CCSCc1ccccc1)SCc1ccccc1 (configuration not stated)	37.7	> 100 µM	46.9	> 100 µM	55.4	> 100 µM	> 100 µM	> 100 µM	> 100 µM	> 100 µM	> 100 µM	60.9 µM	> 100	> 66.9	> 73.7	70.2	53.5	47.9	21.5	30.9
CSc1cc(N=Nc2nc3ccccc3s2)c2ccccc2c1O	7.3	29.3 µM	0.906	25.5 µM	9.55	21.6 µM	14.6 µM	23.9 µM	–	13.3 µM	19.4 µM	11.9 µM	15.9	6.97	11.1	–	6.43	9.03	5.41	7.61
COC(=O)CCCCN=Cc1c(O)c(O)c(C(C)C)c2cc(C)c(-c3c(C)cc4c(C(C)C)c(O)c(O)c(C=NCCCCC(=O)OC)c4c3O)c(O)c12	0.904	4.98 µM	1.13	22.8 µM	1.23	13.5 µM	12.1 µM	> 32.5 µM	> 32.5 µM	8.75 µM	4.05 µM	–	26.5	1.08	1.46	0.886	1.83	0.58	–	0.923
O=NN(Cc1ccc(Cl)cc1)C(C(=O)O)c1ccccc1 (configuration not stated)	–	> 100 µM	–	> 100 µM	–	> 100 µM	> 100 µM	> 100 µM	> 100 µM	> 100 µM	> 100 µM	> 100 µM	> 100	–	–	–	–	–	–	–
Cc1cc(I)cc(CNCCCN2CCSCC2)c1O	11.1	23 µM	15.8	35.8 µM	13.9	28.4 µM	41.8 µM	26.6 µM	46.7 µM	22.5 µM	31 µM	30.9 µM	41.8	18.2	13.6	20.3	10.7	16.4	12.7	14.3
COc1cccc(/C=N/NC(=O)c2ccccc2Nc2ccnc(C(F)(F)F)c2)c1O	0.311	> 67.2 µM	0.215	0.677 µM	0.375	> 23.2 µM	> 100 µM	> 100 µM	–	5.65 µM	> 100 µM	10.6 µM	–	0.423	1.26	0.0822	0.418	0.449	0.378	0.303
CCCCC/C(C=C(C#N)C#N)=C/c1ccccc1	1.95	4.46 µM	2.39	6.32 µM	2.45	7.29 µM	16.2 µM	4.11 µM	> 55.8 µM	14.2 µM	14.1 µM	11.9 µM	22.1	3.85	1.77	7.74	2.68	3.03	2.84	7.08
O=C1c2c(c3c4ccccc4n(CCCCCCBr)c3c3[nH]c4ccccc4c23)C(=O)N1O	2.15	10.8 µM	2.08	4.63 µM	2.07	7.68 µM	9.52 µM	4.97 µM	23.4 µM	2.8 µM	13.3 µM	4.42 µM	10.1	2.9	1.98	3.45	1.48	3.47	1.69	2.11
CCOc1cccc(/C=N/NC(=O)c2ccccc2Nc2ccnc(C(F)(F)F)c2)c1O	0.336	> 51.9 µM	0.253	0.621 µM	0.661	2.91 µM	> 100 µM	77.4 µM	–	4.91 µM	> 100 µM	14.7 µM	–	0.7	1.07	0.18	0.5	0.375	0.407	0.303
O=C(c1ccco1)c1nc2ccc(C(F)(F)F)cc2[n+]([O-])c1C(F)(F)F	> 100	> 100 µM	95.2	> 100 µM	> 100	> 100 µM	> 100 µM	> 100 µM	48.3 µM	> 100 µM	> 100 µM	> 100 µM	> 100	25.4	> 100	10.8	31.6	52.6	43.1	> 100
COC(=O)c1cc2c3ccccc3[nH]c2c2ncccc12	54.9	> 100 µM	> 100	> 100 µM	–	–	> 100 µM	> 100 µM	> 100 µM	> 100 µM	> 100 µM	> 100 µM	> 100	63.9	> 100	57.3	58	30.6	> 100	69.4
NCC(=O)NS(=O)(=O)OC[C@H]1O[C@@H](n2cnc3c(N)ncnc32)[C@H](O)[C@@H]1O	3.14	9.19 µM	2.78	6.95 µM	1.81	3.61 µM	2.62 µM	3.49 µM	2.45 µM	3.34 µM	1.98 µM	3.78 µM	3.25	0.526	1.84	0.388	1.85	0.555	1.85	1.71
COc1cc(OC)cc(-c2ccc(-c3ccc(C(=N)N)o3)o2)c1	2.51	6.11 µM	1.9	4.24 µM	2.07	4.36 µM	4.78 µM	3.12 µM	14.8 µM	3.39 µM	5.91 µM	3.98 µM	9.16	2.35	1.52	3.51	1.95	2.45	1.96	2.67
CCOC(=O)/C=C(/C(=O)OCC)n1cc(Cl)c(=O)n(CC(=O)OCC)c1=O	13.7	9.67 µM and 28 µM	11.2	9.97 µM and 37.2 µM	18	10.4 µM and 40.2 µM	10.7 µM and 36.8 µM	9.95 µM and 36.6 µM	14 µM and > 100 µM	9.28 µM and 30.6 µM	13.6 µM and 38.9 µM	8.88 µM and 33.6 µM	–	20.6	–	34.2	–	21	18.6	–
O=c1oc2ccc(F)cc2c(=O)n1-c1ccc(F)cc1F	2.86	9.6 µM	2.68	7.81 µM	2.47	8.04 µM	6.99 µM	14.6 µM	30.2 µM	3.69 µM	38.8 µM	7.52 µM	6.56	2.3	3.21	3.02	1.76	3.26	2.02	1.93
O=C1/C(=C/c2ccc(Br)cc2)C=C(c2ccccc2)N1CCc1ccccc1	0.394	11.7 µM	75.1	> 100 µM	3.53	71.8 µM	24.7 µM	> 100 µM	3.13 µM	20.8 µM	10.1 µM	–	19.8	1.67	8.38	0.554	3.89	0.761	–	2.82
O=C(O)Cn1ccc(=O)c2ccc([N+](=O)[O-])cc21	–	> 100 µM	–	> 100 µM	–	> 100 µM	78.5 µM	> 100 µM	–	> 100 µM	> 100 µM	> 100 µM	> 100	–	–	–	–	–	–	–

Reference: PubChem BioAssay (NCI)
